# Laboratory results as given in publication PMC10298530, “Synthesis and Anticancer Activity of A-Ring-Modified Derivatives of Dihydrobetulin” (International Journal of Molecular Sciences, 2023).
# Read-outs that look alike come from different tables or passages of the source.
# How the values were obtained:
# MS = test: MTT cell viability assay, MS; type: cell-based, human; conditions: for IC50: Homo sapiens; for Selectivity index (SI): ratio of IC50 values healthy (HEK293) / MS;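 on IC50 (mean ± SD): MS is a melanocyte cell line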
# Text: (§1) Blokhin National Medical Research Center of Oncology (the Ministry of Health of the Russian Federation, Moscow).
# HBL-100/Dox = test: MTT cell viability assay, HBL-100/Dox; type: cell-based, human; conditions: for IC50: Homo sapiens; for Selectivity index (SI): ratio of IC50 values healthy (HEK293) / HBL-100/Dox
# Experimental: (§2) The cells were cultured in a humidified CO2 incubator (model 460-CE; Thermo Fisher Scientific, Waltham, MA, USA) at +37 °C and 5% CO2.
# (§3) The percentage of the viable cells was calculated according to the following equation: cell viability (%) = 100 × (mean absorbance in the treatment group/mean absorbance in the control group). The results were expressed pictorially using Prism 6.0 (GraphPad Software, Boston, MA, USA).
# HEpG2 = test: MTT cell viability assay, HEpG2; type: cell-based, human; conditions: for IC50: Homo sapiens; for Selectivity index (SI): ratio of IC50 values healthy (HEK293) / HEpG2
# Text: as §1
# HBL-100 = test: MTT cell viability assay, HBL-100; type: cell-based, human; conditions: for IC50: Homo sapiens; for Selectivity index (SI): ratio of IC50 values healthy (HEK293) / HBL-100
# Experimental: as §2, §3
# HEK293 = test: MTT cell viability assay, HEK293; type: cell-based; conditions: Homo sapiens
# Text: as §1
# PC-3 = test: MTT cell viability assay, PC-3; type: cell-based, human; conditions: for IC50: Homo sapiens; for Selectivity index (SI): ratio of IC50 values healthy (HEK293) / PC-3
# Text: as §1
# RD TE32 = test: MTT cell viability assay, RD TE32; type: cell-based, human; conditions: for IC50: Homo sapiens; for Selectivity index (SI): ratio of IC50 values healthy (HEK293) / RD TE32
# Text: as §1
# human cancer cell lines = test: MTT assay, panel of cancer cell lines; conditions: for IC50: Homo sapiens; for cytotoxicity in the screening studies: MTT screening, Table S1
# Experimental: In this study, the human embryonic kidney cell line HEK293 was used as the non-cancerous cell line.
# To investigate the cytotoxic activity of the compounds under study, the MTT colorimetric assay [45] was performed. […] After 72 h, 20 μL of 5 mg/mL solution of MTT (PanEco, Moscow, Russia), in sterile phosphate-buffered saline (PBS; PanEco, Moscow, Russia), was added to each well and further incubated for 4 h. Then, the medium with the compounds was removed, and the formed formazan crystals were dissolved in 100 μL of DMSO. […] The IC50 values were determined from dose-dependent curves, using Prism 6.0 (GraphPad Software, Boston, MA, USA).
# A549 = test: MTT cell viability assay, A549; type: cell-based, human; conditions: for IC50: Homo sapiens; for Selectivity index (SI): ratio of IC50 values healthy (HEK293) / A549
# Text: as §1
# MCF-7 = test: MTT cell viability assay, MCF-7; type: cell-based, human; conditions: for IC50: Homo sapiens, MCF7; for Selectivity index (SI): ratio of IC50 values healthy (HEK293) / MCF-7
# Text: as §1
# HCT116 = test: MTT cell viability assay, HCT116; type: cell-based, human; conditions: for IC50: Homo sapiens, HCT-116; for Selectivity index (SI): ratio of IC50 values healthy (HEK293) / HCT116
# Text: as §1
# [1] = MS, MTT, 72 h of treatment, read-out: IC50 Values (Mean ± SD)
# [2] = HBL-100, 72 h, read-out: IC50 Values (Mean ± SD)
# [3] = HBL-100, read-out: IC50 (mean ± SD)
# [4] = HEpG2, MTT, 72 h of treatment, read-out: IC50 Values (Mean ± SD)
# [5] = HBL-100, MTT, 72 h of treatment, read-out: IC50 Values (Mean ± SD)
# [6] = Table S1, HBL-100, read-out: IC50 (mean ± SD)
# [7] = HEK293, MTT, 72 h of treatment, read-out: IC50 Values (Mean ± SD)
# [8] = Table S1, HEK293, read-out: IC50 (mean ± SD)
# [9] = PC-3, MTT, 72 h of treatment, read-out: IC50 Values (Mean ± SD)
# [10] = Table S1, PC-3, read-out: IC50 (mean ± SD)
# [11] = RD TE32, MTT, 72 h of treatment, read-out: IC50 Values (Mean ± SD)
# [12] = Table S1, RD TE32, read-out: IC50 (mean ± SD)
# [13] = read-out: moderate activity (range)
# [14] = A549, MTT, 72 h of treatment, read-out: IC50 Values (Mean ± SD)
# [15] = Table S1, A549, read-out: IC50 (mean ± SD)
# [16] = MCF-7, MTT, 72 h of treatment, read-out: IC50 Values (Mean ± SD)
# [17] = HCT116, MTT, 72 h of treatment, read-out: IC50 Values (Mean ± SD)
# [18] = Table S1, HCT116, read-out: IC50 (mean ± SD)
# [19] = Table S1, MCF-7, read-out: IC50 (mean ± SD)
# [20] = Table S1, MS, read-out: IC50 (mean ± SD)
# [21] = Table S1, HEpG2, read-out: IC50 (mean ± SD)
Compound,IC50 (MS; [1]),Selectivity index (SI) (MS),IC50 (HBL-100/Dox; [2]),IC50 (HBL-100/Dox; [3]),Selectivity index (SI) (HBL-100/Dox),IC50 (HEpG2; [4]),Selectivity index (SI) (HEpG2),IC50 (HBL-100; [5]),IC50 (HBL-100; [6]),Selectivity index (SI) (HBL-100),IC50 (HEK293; [7]),IC50 (HEK293; [8]),melting point,IC50 (PC-3; [9]),IC50 (PC-3; [10]),Selectivity index (SI) (PC-3),IC50 (RD TE32; [12]),IC50 (A549; [15]),IC50 (HCT116; [18]),IC50 (MCF-7; [19]),other results
"COC(=O)[C@]12CCC(C(C)C)C1C1CCC3[C@@]4(C)C[C@@H](C#N)C[C@H](O)C4CC[C@@]3(C)[C@]1(C)CC2 (stereo partly drawn) [compound 19, 2-Cyano-4β-hydroxy-3,4-seco-3,23-dinor-2,24-cyclolup-28-oic acid methyl ester]",22.2 ± 2 µM,1.56,21.1 ± 2.2 µM,21.1 ± 2.23 µM,1.64,31.8 ± 2.7 µM,1.09,16 ± 0.9 µM,16 ± 0.94 µM,2.16,34.6 ± 1.1 µM,34.6 ± 1.09 µM,189.7 °C,17.2 ± 0.7 µM,17.2 ± 0.69 µM,2.01,25.17 ± 0.11 µM,25.9 ± 1.75 µM,28.2 ± 2.06 µM,,IC50 (RD TE32; [11]): 25.2 ± 0.1 µM; Selectivity index (SI) (RD TE32): 1.37; IC50 (human cancer cell lines; [13]): 16 to 77.8 µM; cytotoxicity in the screening studies (human cancer cell lines): relatively weak or moderate cytotoxicity; IC50 (A549; [14]): 25.9 ± 1.8 µM; Selectivity index (SI) (A549): 1.34; IC50 (MCF-7; [16]): 47.9 ± 0.3 µM; Selectivity index (SI) (MCF-7): 0.72; IC50 (HCT116; [17]): 28.2 ± 2.1 µM; Selectivity index (SI) (HCT116): 1.23
"CC(C)C1CC[C@]2(CO)CC[C@]3(C)C(CCC4[C@@]5(C)CC(C#N)=CC(=O)C5CC[C@]43C)C12 (some centres unmarked) [compound 14, 2-Cyano-28-hydroxy-4-oxo-3,4-seco-3,23-dinor-2,24-cyclolup-2(24)-ene]",69.1 ± 1 µM,1.13,54 ± 1.8 µM,54 ± 1.82 µM,1.44,> 100 µM,< 0.78,46.9 ± 2.2 µM,46.9 ± 2.22 µM,1.66,77.8 ± 2.9 µM,77.8 ± 2.9 µM,121 °C,28.3 ± 2.3 µM,28.3 ± 2.29 µM,2.75,,63.2 ± 1.42 µM,,56.7 ± 3.72 µM,IC50 (RD TE32; [11]): 49.1 ± 1.4 µM; Selectivity index (SI) (RD TE32): 1.58; IC50 (human cancer cell lines; [13]): 16 to 77.8 µM; cytotoxicity in the screening studies (human cancer cell lines): relatively weak or moderate cytotoxicity; IC50 (A549; [14]): 63.2 ± 1.4 µM; Selectivity index (SI) (A549): 1.23; IC50 (MCF-7; [16]): 56.7 ± 3.7 µM; Selectivity index (SI) (MCF-7): 1.37; IC50 (HCT116; [17]): 49.9 ± 0.1 µM; Selectivity index (SI) (HCT116): 1.56
"C=C1C[C@H](C#N)C[C@@]2(C)C1CC[C@]1(C)C2CCC2C3C(C(C)C)CC[C@]3(C(=O)OC)CC[C@]21C (some centres unmarked) [compound 13, 2-Cyano-3,4-seco-3-nor-2,24-cyclolup-4(23)-en-28-oic acid methyl ester]",,,,> 200 µM,,,,,> 100 µM,,,> 200 µM,177.7 °C,,> 100 µM,,> 100 µM,> 100 µM,> 100 µM,> 100 µM,IC50 (MS; [20]): > 100 µM; IC50 (HEpG2; [21]): > 100 µM
"COC(=O)[C@]12CCC(C(C)C)C1C1CCC3[C@@](C)(CCC#N)C(C(=O)CBr)CC[C@@]3(C)[C@]1(C)CC2 (some centres unmarked) [compound 30, 24-Bromo-2-cyano-4-oxo-3,4-seco-3,23-dinorlupan-28-oic acid methyl ester]",45.9 ± 2.2 µM,0.53,4.5 ± 0.2 µM,4.53 ± 0.21 µM,5.37,49.6 ± 0.5 µM,0.49,3.6 ± 0.3 µM,3.62 ± 0.33 µM,6.72,24.2 ± 0.5 µM,24.2 ± 0.45 µM,124.4 °C,34 ± 1.3 µM,34.1 ± 1.28 µM,0.71,7.05 ± 0.91 µM,27.7 ± 0.31 µM,,12.04 ± 0.06 µM,IC50 (MS; [20]): 46 ± 2.2 µM; IC50 (RD TE32; [11]): 7.1 ± 0.9 µM; Selectivity index (SI) (RD TE32): 3.41; IC50 (human cancer cell lines; read-out: cytotoxic values (range)): 3.6 to 13.5 µM; cytotoxicity in the screening studies (human cancer cell lines): relatively weak or moderate cytotoxicity; IC50 (A549; [14]): 27.7 ± 0.3 µM; Selectivity index (SI) (A549): 0.87; IC50 (MCF-7; [16]): 12 ± 0.1 µM; Selectivity index (SI) (MCF-7): 2.02; IC50 (HCT116; [17]): 13.5 ± 0.3 µM; Selectivity index (SI) (HCT116): 1.79
"C=C1C[C@H](C#N)C[C@@]2(C)C1CC[C@]1(C)C2CCC2C3C(C(C)C)CC[C@]3(CO)CC[C@]21C (some centres unmarked) [compound 12, 2-Cyano-28-hydroxy-3,4-seco-3-nor-2,24-cyclolup-4(23)-ene]",> 200 µM,< 0.38,63 ± 1.9 µM,63 ± 1.92 µM,1.21,> 100 µM,< 0.77,36.6 ± 1.4 µM,36.6 ± 1.44 µM,2.09,76.5 ± 2.5 µM,76.5 ± 2.49 µM,185.1 °C,55.7 ± 4.9 µM,55.7 ± 4.89 µM,1.37,98.6 ± 2.33 µM,,51 ± 3.67 µM,64.2 ± 3.01 µM,IC50 (RD TE32; [11]): 98.6 ± 2.3 µM; Selectivity index (SI) (RD TE32): 0.78; IC50 (human cancer cell lines; [13]): 16 to 77.8 µM; cytotoxicity in the screening studies (human cancer cell lines): relatively weak or moderate cytotoxicity; IC50 (A549; [14]): 44.4 ± 2.4 µM; Selectivity index (SI) (A549): 1.72; IC50 (MCF-7; [16]): 64.2 ± 3 µM; Selectivity index (SI) (MCF-7): 1.19; IC50 (HCT116; [17]): 51 ± 3.7 µM; Selectivity index (SI) (HCT116): 1.50
"C=C1C2CC[C@]3(C)C(CCC4C5C(C(C)C)CC[C@]5(C(=O)OC)CC[C@]43C)[C@@]2(C)C[C@@H](C#N)[C@@H]1O (stereo partly drawn) [compound 11, 2-Cyano-24β-hydroxy-3,4-seco-3-nor-2,24-cyclolup-4(23)-en-28-oic acid methyl ester]",,,,> 200 µM,,,,,73.3 ± 1.51 µM,,,> 200 µM,133.9 °C,,> 100 µM,,> 200 µM,> 100 µM,> 200 µM,> 100 µM,IC50 (MS; [20]): > 100 µM; IC50 (HEpG2; [21]): > 100 µM
"CC(C)C1CC[C@]2(CO)CC[C@]3(C)C(CCC4[C@@]5(C)C[C@@H](C#N)CC(=O)C5CC[C@]43C)C12 (some centres unmarked) [compound 16, 2-Cyano-28-hydroxy-4-oxo-3,4-seco-3,23-dinor-2,24-cyclolupane]",,,,> 200 µM,,,,,> 100 µM,,,> 100 µM,166.6 °C,,> 100 µM,,> 100 µM,> 100 µM,> 200 µM,> 100 µM,IC50 (MS; [20]): > 100 µM; IC50 (HEpG2; [21]): > 100 µM
